Source: ChEMBL document CHEMBL1201862, “PubChem BioAssay data set” (2004)
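1) Cells in 96-well plates. 2) Compound, 48 h, 5 concentrations. 3) Linear interpolation between surrounding doses. 4) Unreached endpoint = highest concentration. At the GI50, growth is halved.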 Calls of active or inactive are those of the source. No stated cut-off is given here; in the data, active = GI50 up to about 1.1 µM and inactive = higher.

What was measured:
Assay in all cases: DTP human tumour cell line panel, 48 h
786-0 = test system: 786-0
ACHN = test system: ACHN
HCT-116 = test system: HCT-116
HCT-15 = test system: HCT-15
HOP-92 = test system: HOP-92
KM12 = test system: KM12
M14 = test system: M14
MCF7 = test system: MCF7
NCI-H226 = test system: NCI-H226
OVCAR-5 = test system: OVCAR-5
RPMI-8226 = test system: RPMI-8226
SF-268 = test system: SF-268
SF-295 = test system: SF-295
SF-539 = test system: SF-539
SK-MEL-28 = test system: SK-MEL-28
SK-OV-3 = test system: SK-OV-3
SW-620 = test system: SW-620
TK-10 = test system: TK-10
UACC-62 = test system: UACC-62
HL-60 = test system: HL-60

| SMILES | GI50 (786-0) | GI50 (ACHN) | GI50 (HCT-116) | GI50 (HCT-15) | GI50 (HOP-92) | GI50 (KM12) | GI50 (M14) | GI50 (MCF7) | GI50 (NCI-H226) | GI50 (OVCAR-5) | GI50 (RPMI-8226) | GI50 (SF-268) | GI50 (SF-295) | GI50 (SF-539) | GI50 (SK-MEL-28) | GI50 (SK-OV-3) | GI50 (SW-620) | GI50 (TK-10) | GI50 (UACC-62) | GI50 (HL-60) |
| --- | --- | --- | --- | --- | --- | --- | --- | --- | --- | --- | --- | --- | --- | --- | --- | --- | --- | --- | --- | --- |
| O=c1cc(/C=C/c2ccc(O)c(O)c2)oc(/C=C/c2ccc(O)c(O)c2)c1 | 5.75 µM (inactive) | 4.84 µM (inactive) | 4.53 µM (inactive) | 5.68 µM | 2.48 µM (inactive) | 4.37 µM (inactive) | 4.52 µM (inactive) | 3.29 µM (inactive) | 5.16 µM (inactive) | 17.2 µM (inactive) | 6.58 µM (inactive) | 2.17 µM (inactive) | 9.06 µM (inactive) | 2.75 µM (inactive) | 11.9 µM (inactive) | 9.02 µM (inactive) | 4.83 µM (inactive) | 7.33 µM (inactive) | 2.37 µM (inactive) |  |
| COC(=O)c1cnn2c1n[n+]([O-])c1ccccc12 | > 100 µM (inactive) | > 100 µM (inactive) | > 100 µM (inactive) |  | > 100 µM (inactive) | > 100 µM (inactive) | > 100 µM (inactive) | > 100 µM (inactive) | > 100 µM (inactive) | > 100 µM (inactive) | > 100 µM (inactive) | > 100 µM (inactive) | > 100 µM (inactive) |  | > 100 µM (inactive) | > 100 µM (inactive) | > 100 µM (inactive) | > 100 µM (inactive) | > 100 µM (inactive) | 68.5 µM (inactive) |
| COc1cccc(NC(=O)CC(=O)NN)c1 | > 100 µM (inactive) | > 100 µM (inactive) | > 100 µM (inactive) | > 100 µM | > 100 µM (inactive) | > 100 µM (inactive) |  | > 100 µM (inactive) | > 100 µM (inactive) | > 100 µM (inactive) | > 100 µM (inactive) | > 100 µM (inactive) | > 100 µM (inactive) | > 100 µM (inactive) | > 100 µM (inactive) | > 100 µM (inactive) | > 100 µM (inactive) | > 100 µM (inactive) | > 100 µM (inactive) | > 100 µM (inactive) |
| COC(=O)[C@H]1ON2O[C@H](OC3CCCC[C@@H]3c3ccccc3)C[C@@H]3CC[C@H]1[C@@]32C (stereo partly specified) | > 100 µM (inactive) | > 100 µM (inactive) | 79.1 µM (inactive) | 89.9 µM | 81.7 µM (inactive) | 95.9 µM (inactive) | > 100 µM (inactive) | 65.6 µM (inactive) | 49.4 µM (inactive) | > 100 µM (inactive) | 69.7 µM (inactive) | > 100 µM (inactive) | > 100 µM (inactive) |  | > 100 µM (inactive) | > 100 µM (inactive) | > 100 µM (inactive) | > 100 µM (inactive) | > 100 µM (inactive) | 9.66 µM (inactive) |
| N#Cc1c(N)c2c(c(-c3ccccc3)c1-c1ccccc1)C(=O)N(NC(=S)Nc1ccccc1)C2=O | > 100 µM (inactive) | 94.2 µM (inactive) | 56.1 µM (inactive) | 71.8 µM | 34.2 µM (inactive) | 75.7 µM (inactive) | > 100 µM (inactive) | 60.3 µM (inactive) | > 100 µM (inactive) | 35.2 µM (inactive) | 16.7 µM (inactive) | > 100 µM (inactive) | 68.5 µM (inactive) | 89.9 µM (inactive) | 47.2 µM (inactive) |  | > 100 µM (inactive) | 84.5 µM (inactive) | 73.8 µM (inactive) | 37.9 µM (inactive) |
| N#Cc1nc(-c2ccccn2)oc1N | > 100 µM (inactive) | > 100 µM (inactive) | > 100 µM (inactive) | > 100 µM | > 100 µM (inactive) | > 100 µM (inactive) |  | > 100 µM (inactive) | > 100 µM (inactive) | > 100 µM (inactive) | > 100 µM (inactive) | > 100 µM (inactive) | > 100 µM (inactive) |  | > 100 µM (inactive) | > 100 µM (inactive) | > 100 µM (inactive) | > 100 µM (inactive) | > 100 µM (inactive) | > 100 µM (inactive) |
| CC(=O)OCC1OC(SC2=NC(=O)/C(=C/c3ccccc3)S2)C(OC(C)=O)C(OC(C)=O)C1OC(C)=O (stereo unspecified) | 16.9 µM (inactive) | 48.2 µM (inactive) | 29.4 µM (inactive) | 59 µM | 15.7 µM (inactive) | 36.9 µM (inactive) | 31.9 µM (inactive) | 18.9 µM (inactive) | 33.8 µM (inactive) | > 100 µM (inactive) | 24.4 µM (inactive) | 20.1 µM (inactive) | 62.8 µM (inactive) | 23 µM (inactive) | 30.8 µM (inactive) | 45.7 µM (inactive) | 23.8 µM (inactive) |  | 21.1 µM (inactive) | 14.5 µM (inactive) |
| Cc1cc(=O)oc2c(CN(CCCl)CCCl)c(O)ccc12 | 33.4 µM (inactive) | 13.6 µM (inactive) | 27.8 µM (inactive) | 56.9 µM | > 100 µM (inactive) | 78.7 µM (inactive) | 39.8 µM (inactive) | 11.4 µM (inactive) | 35.3 µM (inactive) | > 100 µM (inactive) | 19.1 µM (inactive) | 59.3 µM (inactive) | 11.8 µM (inactive) | 20.6 µM (inactive) | 65.5 µM (inactive) |  | 14 µM (inactive) |  | 5.56 µM (inactive) | 4.3 µM (inactive) |
| C=CC(C)(C)n1cc(C2=C(O)C(=O)C(c3cn(C(C)(C)C=C)c4ccccc34)=C(OC(C)=O)C2=O)c2ccccc21 | 1.47 µM (inactive) | 1.27 µM (inactive) | 0.429 µM (active) | 0.375 µM | 0.598 µM (active) | 0.565 µM (active) | 1.25 µM (inactive) | 0.0715 µM (active) | 1.36 µM (inactive) | 1.66 µM (inactive) | 0.984 µM (active) | 0.655 µM (active) | 0.571 µM (active) |  | 1.21 µM (inactive) | 1.49 µM (inactive) | 1.53 µM (inactive) |  | 0.571 µM (active) | 0.571 µM (active) |
| O=S1(=O)OCCOS(=O)(=O)C1Cc1cccc2ccccc12 | 21.4 µM (inactive) | 31.5 µM (inactive) | 20.3 µM (inactive) | 26.5 µM | 17.9 µM (inactive) |  | 20.7 µM (inactive) | 14.4 µM (inactive) | 7.83 µM (inactive) | 24.3 µM (inactive) | 39.4 µM (inactive) | 14.5 µM (inactive) | 32.3 µM (inactive) | 22.3 µM (inactive) | 2.69 µM (inactive) | 27.5 µM (inactive) | 30.6 µM (inactive) | 30.7 µM (inactive) | 22.2 µM (inactive) | 11.6 µM (inactive) |
| CSCCCNC(=O)c1csc(-c2csc(CCNC(=O)CNC(=O)CNC(=O)CNC(=O)OC(C)(C)C)n2)n1 | > 100 µM (inactive) | > 100 µM (inactive) | > 100 µM (inactive) | > 100 µM | > 100 µM (inactive) | > 100 µM (inactive) | > 100 µM (inactive) | > 100 µM (inactive) | > 100 µM (inactive) | > 100 µM (inactive) |  | > 100 µM (inactive) | > 100 µM (inactive) | > 100 µM (inactive) | > 100 µM (inactive) | > 100 µM (inactive) | > 100 µM (inactive) | > 100 µM (inactive) | > 100 µM (inactive) |  |
| Nc1ccc2c(c1)S(=O)(=O)c1cc(N)ccc1-2 | > 100 µM (inactive) | > 100 µM (inactive) | > 100 µM (inactive) | > 100 µM | > 100 µM (inactive) | > 100 µM (inactive) | > 100 µM (inactive) | > 100 µM (inactive) | > 100 µM (inactive) | > 100 µM (inactive) |  | > 100 µM (inactive) | > 100 µM (inactive) | > 100 µM (inactive) |  | > 100 µM (inactive) | > 100 µM (inactive) | > 100 µM (inactive) | > 100 µM (inactive) | 78.5 µM (inactive) |
| COC(=O)c1ccc(NCc2cc(O)c3ccccc3c2O)cc1 | 16.1 µM (inactive) | 10.8 µM (inactive) | 15.7 µM (inactive) | 8.49 µM | 2.55 µM (inactive) | 14.8 µM (inactive) |  | 3.68 µM (inactive) | 16.4 µM (inactive) | 21.6 µM (inactive) | 3.45 µM (inactive) | 22.4 µM (inactive) | 7.5 µM (inactive) | 15.3 µM (inactive) | 5.65 µM (inactive) | 16.8 µM (inactive) | 12.9 µM (inactive) | 24.4 µM (inactive) | 3.67 µM (inactive) | 3.3 µM (inactive) |
| CC(C)=NNC1=NC(C)(C)P(=O)(NNc2ncccn2)S1 (stereo unspecified) | > 100 µM (inactive) | > 100 µM (inactive) | > 100 µM (inactive) | > 100 µM | > 100 µM (inactive) |  | > 100 µM (inactive) | > 100 µM (inactive) |  | > 100 µM (inactive) |  | > 100 µM (inactive) | > 100 µM (inactive) | > 100 µM (inactive) | > 100 µM (inactive) | > 100 µM (inactive) | > 100 µM (inactive) | > 100 µM (inactive) | > 100 µM (inactive) |  |
| NNC(=O)CCCCCCCC(=O)O | > 100 µM (inactive) | > 100 µM (inactive) | > 100 µM (inactive) | > 100 µM | > 100 µM (inactive) | > 100 µM (inactive) | > 100 µM (inactive) | > 100 µM (inactive) | > 100 µM (inactive) | > 100 µM (inactive) | > 100 µM (inactive) |  | > 100 µM (inactive) | > 100 µM (inactive) | > 100 µM (inactive) | > 100 µM (inactive) | > 100 µM (inactive) | > 100 µM (inactive) | > 100 µM (inactive) | > 100 µM (inactive) |
